# Results: patent US10813920B2, “Drug for treating corneal endothelium by promoting cell proliferation or inhibiting cell damage” (THE DOSHISHA, priority 2013, dated 2020)
# Counter-ions that a name gives are not always drawn. Residues, ends and D or L forms follow the SMILES beside them. *: point of attachment. Cbz = O=C(OCc1ccccc1)*; CH2F = FC*
# Tests used:
# [1] = water; hydrochloride salt; cited from earlier work
# [2] = tested on: cultured monkey corneal endothelial cells; assay: p38 MAPK activation induces apoptosis: Western blot in cultured monkey corneal endothelial cells; type: cell-based; conditions: Western blot after 9 hours
# Protocol: 1×10^5 cultured monkey corneal endothelial cells were seeded on a 12-well plate coated with an FNC Coating Mix and cultured for about 5 days until reaching confluence under the condition of 5% CO2 at 37° C. The medium used was Dulbecco's Modified Eagle Medium (Gibco, 12320-032), 10% FBS, 1% Penicillin-Streptomycin (nacalai tesque, 26252-94).
# As acclimation treatment, Z-VAD (OMe)-FMK (Wako Pure Chemical Industries, Ltd. 269-02071) was then added at a concentration of 10 μM and the cells were incubated for 16 hours under the condition of 5% CO2 at 37° C. For the Control group and anisomysin group, a solvent of a reagent Dimethyl Sulfoxide (DMSO) (Dimethyl Sulfoxide, Sterile-filtered; nacalai tesque, 13408-64) was added. The medium used was Gibco DMEM, 1% P/S. The cellular supernatant was then removed, and anisomysin (Wako Pure Chemical Industries Ltd., 017-16861) was added to the anisomysin group and the anisomysin+Z-VAD-FMK group at a concentration of 10 μM. 10 μM of Z-VAD was added with anisomysin to the anisomysin+Z-VAD-FMK group. DMSO was added to the groups to which Z-VAD-FMK was not added. The cells were then cultured for 9 hours. The cellular form was observed under a phase difference microscope. A picture was taken after 9 hours.
# After 9 hours, cell proteins were collected. The amount of protein expression was compared by Western blot. Anti-caspase 3 antibodies (cell signaling, 9662S), anti-p38 MAPK antibodies (cell signaling, #9212), and anti-pp38 MAPK antibodies (cell signaling, #4631S) were used as the antibodies. Further, anti-GAPDH antibodies (MBL, 3H12) were used as the internal standard.
structure (smiles),measurement,setting,value
"C[S+]([O-])c1ccc(-c2nc(-c3ccncc3)c(-c3ccc(F)cc3)[nH]2)cc1 (stereo not shown) [SB203580 hydrochloride, 4-(4-fluorophenyl)-2-(4-methylsulfinylphenyl)-5-(4-pyridyl)-1H-imidazole]",water solubility,[1],water-soluble
COC(=O)C[C@H](NC(=O)[C@H](C)NC(=O)[C@@H](NC(=O)OCc1ccccc1)C(C)C)C(=O)CF [Z-VAD-FMK] (Cbz-Val-Ala-Asp(OMe)-CH2F),Caspase 3 activation induced by anisomycin,[2]; 10 μM Z-VAD-FMK with 10 μM anisomycin,suppressed
"COc1ccc(C[C@H]2NC[C@H](O)[C@@H]2OC(C)=O)cc1 [anisomysin, (2R,3R,4S)-2-[(4-methoxyphenyl)methyl]-3,4-pyrrolidinediol-3-acetate]",Phosphorylation of p38,[2]; 10 μM,observed
same,activation due to cleavage of caspase 3,[2]; 10 μM,observed
